Measurements reported in ChEMBL document CHEMBL1201862, “PubChem BioAssay data set” (2004).
Calls of active or inactive are those of the source. For most assays here, no stated cut-off is given here; in the data, actives have a measured IC50 and inactives only a lower limit.

Legend:
[1] = target: T1, Tyrosine-protein phosphatase non-receptor type 22 (Homo sapiens, UniProt Q9Y2R2); experiment: inhibitors of LYP phosphatase, biochemical, fluorescence intensity, uHTS (AID 1779)
T1 sequence (Q9Y2R2 whole entry): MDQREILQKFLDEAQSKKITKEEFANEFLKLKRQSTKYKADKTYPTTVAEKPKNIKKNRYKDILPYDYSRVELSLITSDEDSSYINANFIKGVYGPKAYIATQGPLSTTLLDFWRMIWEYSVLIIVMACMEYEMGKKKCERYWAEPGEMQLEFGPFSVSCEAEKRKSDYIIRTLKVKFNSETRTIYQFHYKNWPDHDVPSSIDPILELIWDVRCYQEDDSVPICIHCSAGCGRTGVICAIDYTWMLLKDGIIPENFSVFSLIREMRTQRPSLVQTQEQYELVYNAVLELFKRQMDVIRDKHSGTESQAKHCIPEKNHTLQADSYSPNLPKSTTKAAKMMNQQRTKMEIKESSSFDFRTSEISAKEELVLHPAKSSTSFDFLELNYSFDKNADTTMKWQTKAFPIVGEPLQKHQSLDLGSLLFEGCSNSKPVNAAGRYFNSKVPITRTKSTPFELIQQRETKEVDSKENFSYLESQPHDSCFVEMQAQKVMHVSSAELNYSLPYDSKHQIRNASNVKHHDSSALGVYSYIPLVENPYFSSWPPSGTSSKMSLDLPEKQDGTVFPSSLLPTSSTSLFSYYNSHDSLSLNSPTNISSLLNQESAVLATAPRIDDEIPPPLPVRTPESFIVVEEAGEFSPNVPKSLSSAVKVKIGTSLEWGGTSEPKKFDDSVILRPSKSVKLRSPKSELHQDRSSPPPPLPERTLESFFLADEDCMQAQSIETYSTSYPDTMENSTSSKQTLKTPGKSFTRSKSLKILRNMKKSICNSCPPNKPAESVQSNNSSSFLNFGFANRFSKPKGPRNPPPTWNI

[2] = target: T1, Tyrosine-protein phosphatase non-receptor type 22; experiment: LYP (PTPN22) phosphatase inhibitor potency, SAR follow-up, biochemical, pCAP fluorogenic substrate, fluorescence, set 3 (AID 449727); assay type: functional
[3] = HEp-2 cell cytotoxicity, dose response, cytotoxicity control for RSV inhibitor project, HTS (AID 2410); assay type: functional; details: human respiratory syncytial virus
[4] = target: T1, Tyrosine-protein phosphatase non-receptor type 22; assay type: functional
[5] = target: T2, Tyrosine-protein phosphatase non-receptor type 7 (Homo sapiens, UniProt P35236); assay type: functional
T2 sequence (P35236 whole entry): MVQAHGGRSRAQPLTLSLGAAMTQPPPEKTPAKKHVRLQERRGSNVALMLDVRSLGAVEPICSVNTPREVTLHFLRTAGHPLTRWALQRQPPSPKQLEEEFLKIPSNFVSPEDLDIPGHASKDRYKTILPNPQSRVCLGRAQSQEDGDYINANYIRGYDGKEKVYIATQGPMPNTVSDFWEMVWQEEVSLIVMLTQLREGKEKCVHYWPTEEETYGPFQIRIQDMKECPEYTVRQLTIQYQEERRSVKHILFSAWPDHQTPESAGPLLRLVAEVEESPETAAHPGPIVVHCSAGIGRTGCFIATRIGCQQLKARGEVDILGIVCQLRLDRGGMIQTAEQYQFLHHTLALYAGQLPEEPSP

[6] = target: T1, Tyrosine-protein phosphatase non-receptor type 22; experiment: LYP1 Fluorescent Assay using OMFP substrate for In Vitro dose response studies. [Related pubchem assays (depositor defined):AID1779, AID1784, AID435024]
[7] = target: T1, Tyrosine-protein phosphatase non-receptor type 22; experiment: PubChem AID 2140
[8] = target: T2, Tyrosine-protein phosphatase non-receptor type 7; experiment: HePTP (PTPN7) phosphatase inhibitor potency, SAR follow-up, biochemical, set 2 (AID 449736); assay type: functional
[9] = target: T1, Tyrosine-protein phosphatase non-receptor type 22; assay type: functional; remark: listed apart in the source
[10] = target: T1, Tyrosine-protein phosphatase non-receptor type 22; experiment: SAR LYP1 Fluorescent Assay using OMFP substrate for In Vitro dose response studies - Set 2. [Related pubchem assays (depositor defined):AID1779, AID1784, AID2140, AID449726, AID488869]; assay type: functional
[11] = target: T3, Voltage-gated N-type calcium channel alpha-1B subunit/Amyloid beta A4 precursor protein-binding family A member 1 (Homo sapiens, UniProt Q00975+Q02410); assay type: protein assay
T3 sequence (Q00975 whole entry): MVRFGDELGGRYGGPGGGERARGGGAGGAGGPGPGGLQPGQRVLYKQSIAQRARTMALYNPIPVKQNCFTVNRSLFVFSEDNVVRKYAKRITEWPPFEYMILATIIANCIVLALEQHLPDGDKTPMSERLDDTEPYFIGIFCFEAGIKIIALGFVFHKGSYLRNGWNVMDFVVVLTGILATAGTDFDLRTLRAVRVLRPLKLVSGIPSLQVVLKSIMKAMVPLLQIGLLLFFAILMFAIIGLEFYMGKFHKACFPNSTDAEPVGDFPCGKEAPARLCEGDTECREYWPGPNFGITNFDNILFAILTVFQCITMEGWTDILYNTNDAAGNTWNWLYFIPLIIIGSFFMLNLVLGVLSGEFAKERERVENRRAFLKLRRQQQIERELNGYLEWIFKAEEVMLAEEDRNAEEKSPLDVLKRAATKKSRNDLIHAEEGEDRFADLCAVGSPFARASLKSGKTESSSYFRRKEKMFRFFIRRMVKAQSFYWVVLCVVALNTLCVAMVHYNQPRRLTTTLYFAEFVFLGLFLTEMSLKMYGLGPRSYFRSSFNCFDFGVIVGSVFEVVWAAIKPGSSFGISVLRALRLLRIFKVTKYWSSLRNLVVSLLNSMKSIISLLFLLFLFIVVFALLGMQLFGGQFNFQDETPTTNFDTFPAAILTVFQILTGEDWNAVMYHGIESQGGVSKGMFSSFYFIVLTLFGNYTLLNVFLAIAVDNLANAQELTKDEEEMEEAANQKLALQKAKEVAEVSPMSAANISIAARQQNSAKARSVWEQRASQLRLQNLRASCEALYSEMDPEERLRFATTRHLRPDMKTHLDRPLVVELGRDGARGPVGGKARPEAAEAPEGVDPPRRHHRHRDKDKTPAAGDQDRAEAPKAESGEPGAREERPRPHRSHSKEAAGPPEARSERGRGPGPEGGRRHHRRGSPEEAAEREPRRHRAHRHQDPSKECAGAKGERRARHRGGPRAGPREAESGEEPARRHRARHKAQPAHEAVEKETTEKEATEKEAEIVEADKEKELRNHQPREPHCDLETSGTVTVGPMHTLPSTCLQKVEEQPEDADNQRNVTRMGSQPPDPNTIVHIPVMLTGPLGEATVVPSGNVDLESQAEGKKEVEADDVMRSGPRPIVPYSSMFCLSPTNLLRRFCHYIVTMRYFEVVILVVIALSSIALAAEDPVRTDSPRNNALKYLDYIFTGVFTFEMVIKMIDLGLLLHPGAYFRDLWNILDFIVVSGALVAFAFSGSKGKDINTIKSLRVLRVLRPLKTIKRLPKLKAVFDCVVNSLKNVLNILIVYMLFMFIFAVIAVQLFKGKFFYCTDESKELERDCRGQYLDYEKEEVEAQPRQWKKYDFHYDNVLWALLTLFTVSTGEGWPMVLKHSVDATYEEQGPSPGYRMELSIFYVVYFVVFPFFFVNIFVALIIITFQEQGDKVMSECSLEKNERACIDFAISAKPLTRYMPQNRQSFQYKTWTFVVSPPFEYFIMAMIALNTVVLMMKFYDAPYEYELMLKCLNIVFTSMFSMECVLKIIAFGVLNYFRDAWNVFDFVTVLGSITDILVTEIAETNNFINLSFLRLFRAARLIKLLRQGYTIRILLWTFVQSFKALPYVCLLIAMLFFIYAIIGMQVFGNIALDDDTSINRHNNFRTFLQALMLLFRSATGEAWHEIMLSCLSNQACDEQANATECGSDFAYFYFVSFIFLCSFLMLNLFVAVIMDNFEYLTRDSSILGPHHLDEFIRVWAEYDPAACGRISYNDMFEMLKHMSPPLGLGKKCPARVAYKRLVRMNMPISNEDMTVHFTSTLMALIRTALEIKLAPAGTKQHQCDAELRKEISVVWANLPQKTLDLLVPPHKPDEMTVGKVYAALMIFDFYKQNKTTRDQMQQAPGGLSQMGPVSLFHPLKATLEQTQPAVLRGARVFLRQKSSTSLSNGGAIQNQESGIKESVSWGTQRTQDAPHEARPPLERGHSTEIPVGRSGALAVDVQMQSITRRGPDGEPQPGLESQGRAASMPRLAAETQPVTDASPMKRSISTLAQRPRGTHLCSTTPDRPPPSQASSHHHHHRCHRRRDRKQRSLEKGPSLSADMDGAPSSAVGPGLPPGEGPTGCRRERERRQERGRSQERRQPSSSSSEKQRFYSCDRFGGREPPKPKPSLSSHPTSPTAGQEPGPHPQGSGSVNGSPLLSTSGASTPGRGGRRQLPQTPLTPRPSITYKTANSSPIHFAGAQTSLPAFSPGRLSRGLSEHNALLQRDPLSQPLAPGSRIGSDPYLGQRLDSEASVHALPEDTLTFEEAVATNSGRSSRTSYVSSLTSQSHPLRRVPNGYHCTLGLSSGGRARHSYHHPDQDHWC
T3 sequence (Q02410 whole entry): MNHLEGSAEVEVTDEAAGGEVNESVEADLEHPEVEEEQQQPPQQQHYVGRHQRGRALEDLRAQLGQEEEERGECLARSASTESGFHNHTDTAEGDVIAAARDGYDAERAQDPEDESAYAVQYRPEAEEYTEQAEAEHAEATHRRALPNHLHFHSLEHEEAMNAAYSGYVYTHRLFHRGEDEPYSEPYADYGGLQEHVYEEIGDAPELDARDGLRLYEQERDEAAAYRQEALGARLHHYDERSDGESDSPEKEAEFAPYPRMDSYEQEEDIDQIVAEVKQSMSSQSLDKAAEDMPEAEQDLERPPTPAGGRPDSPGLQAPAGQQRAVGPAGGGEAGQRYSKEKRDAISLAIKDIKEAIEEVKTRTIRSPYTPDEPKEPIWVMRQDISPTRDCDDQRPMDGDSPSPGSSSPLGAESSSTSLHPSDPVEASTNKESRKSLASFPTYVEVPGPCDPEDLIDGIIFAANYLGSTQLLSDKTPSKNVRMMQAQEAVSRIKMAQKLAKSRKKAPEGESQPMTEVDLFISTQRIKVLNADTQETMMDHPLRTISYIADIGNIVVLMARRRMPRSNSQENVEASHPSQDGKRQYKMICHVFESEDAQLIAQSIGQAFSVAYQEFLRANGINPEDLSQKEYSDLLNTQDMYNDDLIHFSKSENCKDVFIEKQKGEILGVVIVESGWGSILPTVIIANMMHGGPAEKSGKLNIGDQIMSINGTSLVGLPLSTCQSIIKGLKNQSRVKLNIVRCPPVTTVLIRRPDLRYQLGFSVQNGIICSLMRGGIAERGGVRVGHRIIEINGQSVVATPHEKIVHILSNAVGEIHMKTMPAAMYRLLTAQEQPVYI

[12] = target: T3, Voltage-gated N-type calcium channel alpha-1B subunit/Amyloid beta A4 precursor protein-binding family A member 1; assay type: protein assay; remark: listed apart in the source
[13] = target: T1, Tyrosine-protein phosphatase non-receptor type 22; experiment: SAR LYP1 Fluorescent Assay using pCAP substrate for In Vitro dose response studies - Set 2. [Related pubchem assays (depositor defined):AID1779, AID1784, AID2135, AID449727]; assay type: functional
[14] = target: T1, Tyrosine-protein phosphatase non-receptor type 22; experiment: SAR LYP1 Fluorescent Assay using OMFP substrate for In Vitro dose response studies - Set 3. [Related pubchem assays (depositor defined):AID1779, AID1784, AID2140, AID2686]; assay type: functional
[15] = target: T1, Tyrosine-protein phosphatase non-receptor type 22; experiment: PubChem AID 2135
[16] = target: T2, Tyrosine-protein phosphatase non-receptor type 7; experiment: HTS HePTP Fluorescent Assay using OMFP substrate for In Vitro dose response studies. [Related pubchem assays (depositor defined):AID1059, AID1077, AID1784, AID2068, AID2085, AID435032, AID521]; assay type: functional
[17] = target: Tyrosine-protein phosphatase non-receptor type 12 (Homo sapiens, UniProt Q05209); experiment: SAR Selectivity Analysis of small molecule inhibitors of PEST using pCAP in a fluorescence assay. [Related pubchem assays (depositor defined):AID1779, AID1784, AID2135]; assay type: functional
Tyrosine-protein phosphatase non-receptor type 12, sequence (Q05209 whole entry): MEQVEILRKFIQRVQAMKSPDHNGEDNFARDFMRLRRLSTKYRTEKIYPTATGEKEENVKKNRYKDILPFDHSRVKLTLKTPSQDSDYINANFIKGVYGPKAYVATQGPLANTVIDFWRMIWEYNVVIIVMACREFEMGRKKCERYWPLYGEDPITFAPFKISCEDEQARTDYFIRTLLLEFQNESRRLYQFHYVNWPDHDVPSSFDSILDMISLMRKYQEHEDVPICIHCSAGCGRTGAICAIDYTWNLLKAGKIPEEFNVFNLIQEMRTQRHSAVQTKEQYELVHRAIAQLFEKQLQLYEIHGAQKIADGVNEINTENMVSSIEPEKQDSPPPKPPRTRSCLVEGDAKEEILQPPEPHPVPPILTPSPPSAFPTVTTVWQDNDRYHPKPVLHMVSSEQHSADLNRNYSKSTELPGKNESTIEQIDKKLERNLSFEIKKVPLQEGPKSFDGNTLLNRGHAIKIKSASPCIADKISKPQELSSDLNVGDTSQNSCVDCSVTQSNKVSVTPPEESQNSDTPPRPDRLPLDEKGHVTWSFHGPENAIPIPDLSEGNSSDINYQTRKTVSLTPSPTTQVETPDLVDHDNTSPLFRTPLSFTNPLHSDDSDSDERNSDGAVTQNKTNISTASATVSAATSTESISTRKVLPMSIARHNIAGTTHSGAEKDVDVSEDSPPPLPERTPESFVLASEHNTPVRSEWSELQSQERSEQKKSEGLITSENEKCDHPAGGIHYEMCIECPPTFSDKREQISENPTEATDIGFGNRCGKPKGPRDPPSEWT

[18] = target: T4, Kappa-type opioid receptor (Homo sapiens, UniProt P41145); experiment: SAR analysis of small molecule antagonists of the kappa opioid receptor via a luminescent beta-arrestin assay - Set 5. [Related pubchem assays (depositor defined):AID1778, AID1785]; assay type: functional
T4 sequence (P41145 whole entry): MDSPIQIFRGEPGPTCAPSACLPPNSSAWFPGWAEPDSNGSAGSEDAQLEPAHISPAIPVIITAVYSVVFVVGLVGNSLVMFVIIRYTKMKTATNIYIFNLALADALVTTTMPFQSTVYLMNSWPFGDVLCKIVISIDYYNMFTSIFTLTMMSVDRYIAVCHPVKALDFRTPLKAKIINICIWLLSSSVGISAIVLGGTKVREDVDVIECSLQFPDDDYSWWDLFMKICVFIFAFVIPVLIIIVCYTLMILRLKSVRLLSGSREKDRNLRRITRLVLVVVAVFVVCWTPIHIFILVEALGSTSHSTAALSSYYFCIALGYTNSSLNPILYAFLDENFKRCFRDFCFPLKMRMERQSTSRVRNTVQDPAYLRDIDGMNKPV

[19] = target: T4, Kappa-type opioid receptor; experiment: SAR analysis of small molecule antagonists of the kappa opioid receptor via a luminescent beta-arrestin assay - Set 4. [Related pubchem assays (depositor defined):AID1777, AID1778, AID1785, AID1786, AID1966, AID2133, AID2136, AID2285]; assay type: functional

Structure (SMILES) | IC50 [1] | IC50 [2] | CC50 [3] | IC50 [4] | IC50 [5] | IC50 [6] | IC50 [7] | IC50 [8] | IC50 [9] | IC50 [10] | IC50 [11] | IC50 [12] | IC50 [13] | IC50 [14] | IC50 [15] | IC50 [16] | IC50 [17] | IC50 [18] | IC50 [19]
N#C/C(=C/c1ccc(OCc2ccc(C(=O)O)cc2)c(Br)c1)c1cccc(F)c1 | 12.6 µM (active) | 4.86 µM (active) | > 50 µM (active) | 2.61 µM (active) | 14.6 µM (active) | 18.8 µM (active) | 7.71 µM (active) | 0.481 µM (active) | 15.7 µM (active) | 3.15 µM (active) | > 50 µM (inactive) | 13.7 µM (active) | 1.6 µM (active) | 20.5 µM (active) | 2.66 µM (active) | 8.8 µM (active) | 1.65 µM (active) |  | 
COc1ccc(CN(CCNC(=O)c2ccc(CNS(=O)(=O)Cc3ccccc3)cc2)C(C)C)cc1 |  |  |  |  |  |  |  |  |  |  |  |  |  |  |  |  |  | 0.452 µM (active) | 1.66 µM (active)
